The values that follow come from PMC9428768 (RSC Chemical Biology, 2022).

One experiment has as its system HeLa cells. The experiment is described as follows: MTT assay. In kind it is cell-based. The settings on record: Homo sapiens, 48 h, read-out: Cytotoxicity (HeLa cells).
For a further experiment, the system named is PBD. The settings on record: cited from earlier work.

For the molecule `CC[C@@H]1C(=O)N(C)c2cnc(Nc3ccc(C(=O)NC4CCN(C)CC4)cc3OC)nc2N1C1CCCC1` [BI2536], in the experiment with HeLa cells, the IC50 was 32 ± 1.6 nM. For the molecule PLHSpT [Ligand 1], the “less PBD-binding affinity than peptide 2” value in the experiment on PBD is given as “approximately 1000 fold”.
